Experimental data: paper PMC10373199 (ACS Omega, 2023)
Values after ≈ are worked out from the molar mass of the structure shown. Read-outs that look alike come from different tables or passages of the source. Marks after values point to notes of the source that are not given here.

Tests used:
Ishikawa cells = test: AlkP activity in Ishikawa cells; assay type: cell-based, human; details: 72 h, DMSO set to 1
ovariectomized rats = test: Uterotrophic assay; assay type: in vivo, rat; details: 10 μg/kg BW/day s.c. for 3 days
60 NCI tumor cell lines = test: NCI one-dose screen, mean over 60 tumor cell lines; assay type: cell-based; details: Homo sapiens, read-out: mean growth inhibition (%)
MCF-7 = test: NCI one-dose screen, MCF-7; assay type: cell-based; details: Homo sapiens, MCF7, read-out: growth inhibition on MCF-7 (%), 10 μM
60 different cell lines = test: NCI five-dose screen, mean/median over 60 cell lines; assay type: cell-based; details: Homo sapiens
CCRF-CEM = test: NCI five-dose screen, CCRF-CEM; assay type: cell-based; details: Homo sapiens
HL-60 (TB) = test: NCI five-dose screen, HL-60; assay type: cell-based; details: Homo sapiens
K-562 = test: NCI five-dose screen, K-562; assay type: cell-based; details: Homo sapiens, K562
MOLT-4 = test: NCI five-dose screen, MOLT-4; assay type: cell-based; details: Homo sapiens
RPMI-8226 = test: NCI five-dose screen, RPMI-8226; assay type: cell-based; details: Homo sapiens
SR = test: NCI five-dose screen, SR; assay type: cell-based; details: Homo sapiens
A549/ATCC = test: NCI five-dose screen, A549/ATCC; assay type: cell-based; details: Homo sapiens
EKVX = test: NCI five-dose screen, EKVX; assay type: cell-based; details: Homo sapiens
HOP-62 = test: NCI five-dose screen, HOP-62; assay type: cell-based; details: Homo sapiens
HOP-92 = test: NCI five-dose screen, HOP-92; assay type: cell-based; details: Homo sapiens
NCI-H226 = test: NCI five-dose screen, NCI-H226; assay type: cell-based; details: Homo sapiens
NCI-H23 = test: NCI five-dose screen, NCI-H23; assay type: cell-based; details: Homo sapiens
NCI-H322M = test: NCI five-dose screen, NCI-H322M; assay type: cell-based; details: Homo sapiens
NCI-H460 = test: NCI five-dose screen, NCI-H460; assay type: cell-based; details: Homo sapiens
NCI-H522 = test: NCI five-dose screen, NCI-H522; assay type: cell-based; details: Homo sapiens
COLO 205 = test: NCI five-dose screen, COLO 205; assay type: cell-based; details: Homo sapiens
HCC-2998 = test: NCI five-dose screen, HCC-2998; assay type: cell-based; details: Homo sapiens
HCT-116 = test: NCI five-dose screen, HCT-116; assay type: cell-based; details: Homo sapiens
HCT-15 = test: NCI five-dose screen, HCT-15; assay type: cell-based; details: Homo sapiens
HT29 = test: NCI five-dose screen, HT29; assay type: cell-based; details: Homo sapiens, HT-29
KM12 = test: NCI five-dose screen, KM12; assay type: cell-based; details: Homo sapiens
SW-620 = test: NCI five-dose screen, SW-620; assay type: cell-based; details: Homo sapiens
SF-268 = test: NCI five-dose screen, SF-268; assay type: cell-based; details: Homo sapiens
SF-295 = test: NCI five-dose screen, SF-295; assay type: cell-based; details: Homo sapiens
SF-539 = test: NCI five-dose screen, SF-539; assay type: cell-based; details: Homo sapiens
SNB-19 = test: NCI five-dose screen, SNB-19; assay type: cell-based; details: Homo sapiens
SNB-75 = test: NCI five-dose screen, SNB-75; assay type: cell-based; details: Homo sapiens
U251 = test: NCI five-dose screen, U251; assay type: cell-based; details: Homo sapiens, U-251
LOX IMVI = test: NCI five-dose screen, LOX IMVI; assay type: cell-based; details: Homo sapiens
MALME-3M = test: NCI five-dose screen, MALME-3M; assay type: cell-based; details: Homo sapiens
M14 = test: NCI five-dose screen, M14; assay type: cell-based; details: Homo sapiens
MDA-MB-435 = test: NCI five-dose screen, MDA-MB-435; assay type: cell-based; details: Homo sapiens
SK-MEL-2 = test: NCI five-dose screen, SK-MEL-2; assay type: cell-based; details: Homo sapiens
SK-MEL-28 = test: NCI five-dose screen, SK-MEL-28; assay type: cell-based; details: Homo sapiens
SK-MEL-5 = test: NCI five-dose screen, SK-MEL-5; assay type: cell-based; details: Homo sapiens
UACC-257 = test: NCI five-dose screen, UACC-257; assay type: cell-based; details: Homo sapiens
UACC-62 = test: NCI five-dose screen, UACC-62; assay type: cell-based; details: Homo sapiens
IGROV1 = test: NCI five-dose screen, IGROV1; assay type: cell-based; details: Homo sapiens, IGROV-1
OVCAR-3 = test: NCI five-dose screen, OVCAR-3; assay type: cell-based; details: Homo sapiens
OVCAR-4 = test: NCI five-dose screen, OVCAR-4; assay type: cell-based; details: Homo sapiens
OVCAR-5 = test: NCI five-dose screen, OVCAR-5; assay type: cell-based; details: Homo sapiens
OVCAR-8 = test: NCI five-dose screen, OVCAR-8; assay type: cell-based; details: Homo sapiens
NCI/ADR-RES = test: NCI five-dose screen, NCI/ADR-RES; assay type: cell-based; details: Homo sapiens
SK-OV-3 = test: NCI five-dose screen, SK-OV-3; assay type: cell-based; details: Homo sapiens
786–0 = test: NCI five-dose screen, 786–0; assay type: cell-based; details: Homo sapiens
A498 = test: NCI five-dose screen, A498; assay type: cell-based; details: Homo sapiens
ACHN = test: NCI five-dose screen, ACHN; assay type: cell-based; details: Homo sapiens
CAKI-1 = test: NCI five-dose screen, CAKI-1; assay type: cell-based; details: Homo sapiens
RXF 393 = test: NCI five-dose screen, RXF 393; assay type: cell-based; details: Homo sapiens
SN12C = test: NCI five-dose screen, SN12C; assay type: cell-based; details: Homo sapiens
TK-10 = test: NCI five-dose screen, TK-10; assay type: cell-based; details: Homo sapiens
UO-31 = test: NCI five-dose screen, UO-31; assay type: cell-based; details: Homo sapiens
PC-3 = test: NCI five-dose screen, PC-3; assay type: cell-based; details: Homo sapiens
DU-145 = test: NCI five-dose screen, DU-145; assay type: cell-based; details: Homo sapiens
MCF7 = test: NCI five-dose screen, MCF7; assay type: cell-based; details: Homo sapiens
MDA-MB-231/ATCC = test: NCI five-dose screen, MDA-MB-231/ATCC; assay type: cell-based; details: Homo sapiens
HS 578T = test: NCI five-dose screen, HS 578T; assay type: cell-based; details: Homo sapiens
BT-549 = test: NCI five-dose screen, BT-549; assay type: cell-based; details: Homo sapiens
T-47D = test: NCI five-dose screen, T-47D; assay type: cell-based; details: Homo sapiens, T47D
MDA-MB-468 = test: NCI five-dose screen, MDA-MB-468; assay type: cell-based; details: Homo sapiens
EBOV = assay type: cell-based, Ebola virus; parameters: unit not given beside the values
in vitro = details: human
influenza A virus H1N1 = test: Influenza A virus H1N1 screening, visual CPE inhibition; assay type: cell-based, influenza A virus H1N1 (California/07/2009)

CC/C(=C(\c1ccc(O)cc1)c1ccc(OCCN(C)C)cc1)c1ccccc1 [Compound 4-OH-TAM, 4-hydroxytamoxifen]
AlkP activity (Ishikawa cells; 1 μM): 1.73 ± 0.46
AlkP activity (Ishikawa cells; 10 μM): 0.60 ± 0.20

C[C@]12CC[C@@H]3c4ccc(O)cc4CC[C@H]3[C@@H]1CC[C@@H]2O [Compound E2, 17β-estradiol]
AlkP activity (Ishikawa cells; 10 nM): 6.86 ± 0.69 ^a
relative UWW, mean ± SD (ovariectomized rats): 3.85 ± 0.71 g/kg BW

CC/C(=C(\c1ccccc1)c1ccc(OCCN(C)C)cc1)c1ccccc1 [TAM, Tamoxifen]
inhibition at 10 µM (60 NCI tumor cell lines): ≥ 100%
inhibition at 10 µM (MCF-7): ≥ 100%
AlkP activity (Ishikawa cells; 1 μM): 1.60 ± 0.55
AlkP activity (Ishikawa cells; 10 μM): 1.02 ± 0.37
GI50 (60 different cell lines; read-out: GI50, mean): 4.41 µM
GI50 (60 different cell lines; read-out: GI50, median): 3.98 µM
GI50 (CCRF-CEM): 3.16 µM
GI50 (HL-60 (TB)): 2.51 µM
GI50 (K-562): 1.99 µM
GI50 (MOLT-4): 2.51 µM
GI50 (RPMI-8226): 2.51 µM
GI50 (SR): 1.26 µM
GI50 (A549/ATCC): 3.98 µM
GI50 (EKVX): 6.31 µM
GI50 (HOP-62): 10 µM
GI50 (HOP-92): 2.52 µM
GI50 (NCI-H226): 10 µM
GI50 (NCI-H23): 5.01 µM
GI50 (NCI-H322M): 7.94 µM
GI50 (NCI-H460): 3.16 µM
GI50 (NCI-H522): 6.31 µM
GI50 (COLO 205): 2.15 µM
GI50 (HCC-2998): 3.16 µM
GI50 (HCT-116): 3.98 µM
GI50 (HCT-15): 3.16 µM
GI50 (HT29): 2.51 µM
GI50 (KM12): 3.16 µM
GI50 (SW-620): 3.16 µM
GI50 (SF-268): 6.31 µM
GI50 (SF-295): 1.96 µM
GI50 (SF-539): 5.01 µM
GI50 (SNB-19): 6.31 µM
GI50 (SNB-75): 5.01 µM
GI50 (U251): 3.16 µM
GI50 (LOX IMVI): 2.51 µM
GI50 (MALME-3M): 3.16 µM
GI50 (M14): 2.51 µM
GI50 (MDA-MB-435): 3.16 µM
GI50 (SK-MEL-2): 5.01 µM
GI50 (SK-MEL-28): 3.98 µM
GI50 (SK-MEL-5): 2.51 µM
GI50 (UACC-257): 3.16 µM
GI50 (UACC-62): 6.31 µM
GI50 (IGROV1): 5.01 µM
GI50 (OVCAR-3): 3.98 µM
GI50 (OVCAR-4): 6.31 µM
GI50 (OVCAR-5): 6.31 µM
GI50 (OVCAR-8): 7.94 µM
GI50 (NCI/ADR-RES): 5.01 µM
GI50 (SK-OV-3): 10 µM
GI50 (786–0): 3.98 µM
GI50 (A498): 6.31 µM
GI50 (ACHN): 6.31 µM
GI50 (CAKI-1): 3.98 µM
GI50 (RXF 393): 2.51 µM
GI50 (SN12C): 3.98 µM
GI50 (TK-10): 3.98 µM
GI50 (UO-31): 6.31 µM
GI50 (PC-3): 3.16 µM
GI50 (DU-145): 6.31 µM
GI50 (MCF7): 1.58 µM
GI50 (MDA-MB-231/ATCC): 6.31 µM
GI50 (HS 578T): 3.98 µM
GI50 (BT-549): 6.31 µM
GI50 (T-47D): 2.51 µM
GI50 (MDA-MB-468): 1.96 µM

NC(=O)c1nc(F)c[nH]c1=O [favipiravir]
SI90 (EBOV): >14
CC50 (in vitro): > 1000 µg/mL

NC(=O)c1ncn([C@@H]2O[C@H](CO)[C@@H](O)[C@H]2O)n1 [ribavirin]
EC50 (influenza A virus H1N1; Influenza A virus, H1N1, MDCK, read-out: EC50, visual CPE): 1 µg/mL (≈ 4.09 µM)
SI50 (CC50/EC50) (influenza A virus H1N1; visual CPE): >320 µg/mL
